Laboratory results from patent publication US20220031738A1, “IRON FORMULATIONS FOR TOPICAL ADMINISTRATION AND METHODS OF TREATMENT OF IRON DEFICIENCY” (DYVE BIOSCIENCES, INC., priority 2018, published 2022).

Columns and labels:
Assay type in all cases: in vivo
[1] = system: Anemic pregnant human patients; test: Topical vs oral vs intravenous iron for anemia in pregnancy
Description: In this experiment, iron (in the form of ferrous sulfate) in formulations of the invention was tested for its ability to treat anemia in pregnant patients, and compared to orally or intravenously delivered iron supplementation.
In vivo tests were performed as follows: Anemic pregnant human patients were treated with either topical, oral or intravenous iron supplementation during 14 to 34 weeks of pregnancy. Trial design was built to assess these primary outcomes: haemoglobin and serum ferritin levels. Treatment groups randomized as follows: • a. Oral iron supplement group (200 mg of ferrous fumarate per day) • b. Intravenous iron supplement group (200 mg of iron sucrose was administered in 100 ml 0.9% sodium chloride per day) • c. Topical iron supplement group (3.34 g of topical formulation applied per day) Formulations detailed in Table 3 below

[2] = system: Anemic human patients with progressive renal insufficiency; test: Topical vs oral vs intravenous iron supplementation in anemic patients with progressive renal insufficiency treated with erythropoietin
Description: In this experiment, iron (in the form of ferrous sulfate) in formulations of the invention was tested for its ability to treat anemia in patients with progressive renal insufficiency, and compared to orally or intravenously delivered iron supplementation.
In vivo tests were performed as follows: Anemic human patients with progressive renal insufficiency were treated with either topical, oral or intravenous iron supplementation and evaluated at baseline, 3 months and 6 months. Trial design was built to assess these primary outcomes: hemoglobin response, serum ferritin levels, changes in red cell hypochromasia, and incidence of adverse events. Treatment groups randomized as follows: • Oral iron supplement group (ferrous sulphate 200 mg tds) • Intravenous iron supplement group (300 mg iron sucrose monthly) • Topical iron supplement group (3.34 g of topical formulation applied tds) Formulations detailed below in Table 1 • In all groups Erythropoietin (rHuEpo) treatment was simultaneously commenced.

[3] = system: Anemic human patients with progressive renal insufficiency; test: Topical vs oral vs intravenous iron for iron deficiency in non-hemodialysis-dependent patients with chronic kidney disease; details: oral = ferrous sulphate 325 mg thrice daily; intravenous ferric carboxymaltose; topical = 5.42 g Table 2 formulation tds
Description: In this experiment, iron (in the form of ferrous sulfate) in formulations of the invention was tested for its ability to treat iron deficiency in non-hemodialysis dependent patients with chronic kidney disease, and compared to orally or intravenously delivered iron supplementation.
In vivo tests were performed as follows: Anemic human patients with progressive renal insufficiency were treated with either topical, oral or intravenous iron supplementation. Trial design was built to assess these primary outcomes: hemoglobin response, and incidence of adverse events. Treatment groups randomized as follows: • a. Oral iron supplement group (ferrous sulphate 325 mg thrice daily for a total of 195 mg elemental iron daily) • b. Intravenous iron supplement group (intravenous ferric carboxymaltose 1000 mg over 15 min (with up to two additional doses of 500 mg at 2-week intervals)) • c. Topical iron supplement group (5.42 g of topical formulation applied tds) Formulations detailed in Table 2 below.

[4] = system: human IBD patients with anemia; test: Topical vs oral vs intravenous iron for anemia in inflammatory bowel disease
Description: In this experiment, iron (in the form of ferrous sulfate) in formulations of the invention was tested for its ability to help treat anemia in inflammatory bowel disease (IBD) patients and compared to orally or intravenously delivered iron supplementation.
In vivo tests were performed as follows: human IBD patients with anemia were treated with either topical, oral or intravenous iron supplementation for 12 weeks. Trial design was built to assess this primary outcome: change in hemoglobin (Hb) from baseline to week 12. Treatment groups randomized as follows: • a. Oral iron supplement group (FeSulf containing 100 mg ferrous iron (II). Patients received one capsule b.i.d. for 12 wk) • b. Intravenous iron supplement group (ferric carboxymaltose (FeCarb) 50 mg ferric iron (III) per milliliter in water with individual patient dosage calculated according to the formula of Ganzoni) • c. Topical iron supplement group (1.67 g of topical formulation applied b.i.d.) Formulations detailed in Table 5 below

[5] = system: human iron-depleted, nonanemic women; test: Topical vs oral iron to improve endurance after training in iron-depleted, nonanemic women; details: oral = ferrous sulfate 100 mg per day
Description: In this experiment, iron (in the form of ferrous sulfate) in formulations of the invention was tested for its ability to help improve endurance after training in iron-depleted, nonanemic women and compared to orally delivered iron supplementation.
In vivo tests were performed as follows: human iron-depleted (serum ferritin <16 μg/l), nonanemic (Hb >12 g/dl) women (18-33 yr old) were treated with either topical or oral iron supplementation for 6 weeks. Subjects trained for 30 min/day, 5 days/wk at 75-85% of maximum heart rate for the final 4 wk of the study. Trial design was built to assess this primary outcome: change in 15 km time from baseline to […]. Treatment groups randomized as follows: • a. Control group: oral placebo • b. Oral iron supplement group (100 mg of ferrous sulfate per day) • c. Topical iron supplement group (1.67 g of topical formulation applied daily) Formulations detailed in Table 6 below

[6] = system: human patients with chemotherapy-related anemia; test: Topical vs oral vs intravenous iron in anemic cancer patients receiving darbepoetin alfa; details: 8 weeks, with darbepoetin alfa 500 mcg every 3 weeks; oral = sucrosomial iron 30 mg daily; IV = ferric gluconate 125 mg weekly; topical = 0.50 g Table 4 formulation daily
Description: In this experiment, iron (in the form of ferrous sulfate) in formulations of the invention was tested for its ability to help treat chemotherapy-induced anemia in cancer patients when combined with erythropoiesis-stimulating agents (ESAs), and compared to orally or intravenously delivered iron supplementation. […] Trial design was built to assess this primary outcome: Hb response as defined as the Hb increase ≥2 g/dL from baseline or the attainment Hb ≥12 g/dL. Treatment groups randomized as follows: • a. Oral iron supplement group (sucrosomial iron 30 mg daily) • b. […] Topical iron supplement group (0.50 g of topical formulation applied daily) Formulations detailed in Table 4 below

## iron sucrose
[1]; pregnant women, 14 to 34 weeks of pregnancy, oral = ferrous fumarate 200 mg per day, intravenous = iron sucrose 200 mg per day, topical = 3.34 g Table 3 formulation per day
  change in hemoglobin: 22 ± 11.5 g/L
[1]; same arms as E9
  patients with increase in ferritin level between 51 to 100 ng/ml: 48%
[2]; comparator oral ferrous sulphate 200 mg tds, intravenous = iron sucrose 300 mg monthly, topical = 3.34 g Table 1 formulation tds
  serum ferritin levels versus oral: statistical significantly higher
[2]; human, in vivo
  allergic reactions reported, share of patients: 10%
[2]; intravenous = iron sucrose 300 mg monthly, topical = 3.34 g Table 1 formulation tds
  serum ferritin levels, topical versus intravenous: not statistically different

## ferric carboxymaltose
[3]
  treatment-related adverse events: 2.7%
[4]; 12 weeks, same arms as E16
  median Hb after treatment (week 12): 12.3 g/dL
[4]; before treatment, oral = FeSulf 100 mg ferrous iron b.i.d., IV = ferric carboxymaltose (Ganzoni dose), topical = 1.67 g Table 5 formulation b.i.d.
  median Hb at baseline: 8.7 g/dL

## O=S(=O)([O-])[O-].[Fe+2] [ferrous sulphate]
[5]; topical = 1.67 g Table 6 formulation daily
  decrease in 15-km time vs the placebo control group: statistically significantly greater
[5]; transdermal = 1.67 g Table 6 formulation daily
  decrease in 15-km time, oral versus transdermal: no statistical difference
[2]; oral = ferrous sulphate, intravenous = iron sucrose, transdermal = Table 1 formulation
  allergic reactions reported, share of patients: none

## O=C([O-])/C=C/C(=O)[O-].[Fe+2] [ferrous fumarate]
[1]; same arms as E9
  participants with an improvement in hemoglobin more than 20 g/L: 11%

## ferric gluconate
[6]
  patients achieving an erythropoietic (Hb) response: Hb increase ≥2 g/dL from baseline or Hb ≥12 g/dL: Seventy one
